Tested on: E. coli MC4100(DE3)
Experiment: Cell growth (optical density A500) under Tat++ conditions
Type: cell-based, Escherichia coli
Details: Tat++ conditions, concentration-dependent, 8 h 25°C
Method: Fig 4 Effect of Oxidative Phosphorylation Inhibitors on In Vivo Tat Transport and Sensitivity of Fluorescence Detection on Plates. (A) Effect of oxidative phosphorylation inhibitors on cell growth and mCherry fluorescence under Tat^++ conditions. Cells producing spTorA-mCherry-SsrA under Tat^++ conditions were grown at 25°C for 8 h in the presence of the indicated respiratory inhibitors. After overnight incubation at 4°C, optical densities (upper panel; A500) and total mCherry cellular fluorescence intensities (lower panel; EX = 587 nm, EM = 610 nm) were measured (n = 3). Nigericin (N; 50 μM) is a H^+/K^+ exchanger, which collapses the ΔpH gradient. Valinomycin (V; 50 μM) is a K^+ ionophore, which collapses the Δψ. NaSCN (SCN; 50 mM) collapses the Δψ. NaN3 (N3; 0.1%) inhibits the cytochrome bo3 terminal oxidase. (B) Effect of NaSCN concentration on cell density and total mCherry cellular fluorescence. Measurements were made after incubating cells overnight at 4°C (n = 3). (C) Calibration and sensitivity of mCherry fluorescence detection in 384-well plates. Overnight cultures of E. coli MC4100(DE3) cells were diluted to A500 = 0.25, 0.2, 0.15, 0.10 and 0.05, and aliquoted into 384-well plates. The spTorA-mCherry-SsrA and TatABC proteins were induced together or neither were induced, as indicated. The cells were incubated at 25°C for 8 hours, and stored overnight at 4°C. Optical densities (upper panel) and mCherry fluorescence intensities (lower panel) were determined with a BMG Polarstar Omega plate reader (at 500 nm for absorbance; EX = 584 nm, EM = 620 nm for fluorescence). For comparison, the absorbance and fluorescence intensities from purified spTorA-mCherry-H6 (30, 25, 20, 15, 10 and 5 nM) are also shown (n = 3 plates, 16 wells/plate). (D) Simulated hits on 384-well plates. Using the approach described in (C), cells (A500 = 0.15) were grown on plates under the indicated conditions, and then fluorescence intensities were measured. spTorA-mCherry-SsrA was used for conditions II-IV. spTorA-mCherry-H6 was used for a minus SsrA control (I; 100%). The SsrA tag decreased the mCherry fluorescence intensity (II; 63±14%), consistent with a decrease in cytoplasmic mCherry concentration due to SsrA-dependent degradation.
The plates containing cells and dispersed test compounds were grown with shaking (200 rpm) at 25°C for 8 h. Plates were individually mounted, not stacked, on a hollow plastic platform, allowing adequate air circulation. Following the 8 h incubation, plates were transferred to 4°C for 16 h. Each plate was covered with an empty plate to prevent condensation on the lid. […] Following the incubation, plates were read using a BMG Polarstar Omega plate reader (BMG Labtech, Ortenberg, Germany) to determine optical densities (A500) and mCherry fluorescence intensities (EX = 584 nm, EM = 620 nm).
Supplementary file pone.0149659.s005.tiff: S5 Fig Effect of P. aeruginosa Tat Inhibitors on E. coli Cell Growth and Tat Transport. The concentration-dependent effects of Bay 11–7082 (A) and N-phenylmaleimide (B) on bacterial growth (black) and in vivo Tat transport of spTorA-mCherry-SsrA (red) was determined under Tat^++ conditions (top). An overnight culture of MC4100(DE3) (pTorA-mCherry-SsrA, pTatABC-Duet1) was diluted 1:50 in 10 mL fresh LB broth with appropriate antibiotics and dispensed (2 mL) into 5 tubes, and growth was continued at 37°C with shaking at 200 rpm until A500 ≈ 0.5. The indicated concentrations of the two compounds were added, and the expression of spTorA-mCherry-SsrA and TatABC were induced. Cultures were grown for another 8 h at 25°C. Cell growth was assayed by A500, and cells (1 mL, A500 = 1.0) were fractionated into cytoplasmic (C) and periplasmic (P) fractions as described. Transport of spTorA-mCherry-SsrA was assayed by in-gel fluorescence of mCherry (upper gels) and Western blot analyses (middle gels). […]

| SMILES | effect on E. coli growth |
| --- | --- |
| Cc1ccc(S(=O)(=O)/C=C/C#N)cc1 [Bay 11–7082] | inhibited E. coli growth |
| O=C1C=CC(=O)N1c1ccccc1 [N-phenylmaleimide] | inhibited E. coli growth |

Source: article PMC4764201, “High Throughput Screen for Escherichia coli Twin Arginine Translocation (Tat) Inhibitors” (PLoS ONE, 2016)
